Experimental data taken from patent publication US11919887B2, “Substituted tetrahydrofurans as modulators of sodium channels” (Vertex Pharmaceuticals Incorporated, priority 2019, dated 2024).
Read-outs that look alike come from different tables or passages of the source.

Target: human Nav 1.8 (Homo sapiens, UniProt Q9Y5Y9)
Experiment: E-VIPR assay detecting and measuring Nav inhibition (HEK cells expressing truncated human Nav 1.8)
Type: cell-based
Summary of the method: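 HEK cells expressing truncated human Nav1.8, transduced with KIR2.1 BacMam, were loaded with CC2-DMPE/DiSBAC6(3) FRET dyes and tested under electrical stimulation (E-VIPR). Compounds were run as 11-point 3-fold dilutions, top 300 nM final, 0.625% DMSO, with or without 25% human serum.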

[1] = in the Absence of Human Serum in the E-VIPR Assay, read-out: IC50
[2] = in the Absence of Human Serum in the E-VIPR Assay
[3] = in the Presence of Human Serum in the E-VIPR Assay, read-out: IC50

Chain of human Nav 1.8 (Q9Y5Y9 whole entry, looked up, the tested form may be a part): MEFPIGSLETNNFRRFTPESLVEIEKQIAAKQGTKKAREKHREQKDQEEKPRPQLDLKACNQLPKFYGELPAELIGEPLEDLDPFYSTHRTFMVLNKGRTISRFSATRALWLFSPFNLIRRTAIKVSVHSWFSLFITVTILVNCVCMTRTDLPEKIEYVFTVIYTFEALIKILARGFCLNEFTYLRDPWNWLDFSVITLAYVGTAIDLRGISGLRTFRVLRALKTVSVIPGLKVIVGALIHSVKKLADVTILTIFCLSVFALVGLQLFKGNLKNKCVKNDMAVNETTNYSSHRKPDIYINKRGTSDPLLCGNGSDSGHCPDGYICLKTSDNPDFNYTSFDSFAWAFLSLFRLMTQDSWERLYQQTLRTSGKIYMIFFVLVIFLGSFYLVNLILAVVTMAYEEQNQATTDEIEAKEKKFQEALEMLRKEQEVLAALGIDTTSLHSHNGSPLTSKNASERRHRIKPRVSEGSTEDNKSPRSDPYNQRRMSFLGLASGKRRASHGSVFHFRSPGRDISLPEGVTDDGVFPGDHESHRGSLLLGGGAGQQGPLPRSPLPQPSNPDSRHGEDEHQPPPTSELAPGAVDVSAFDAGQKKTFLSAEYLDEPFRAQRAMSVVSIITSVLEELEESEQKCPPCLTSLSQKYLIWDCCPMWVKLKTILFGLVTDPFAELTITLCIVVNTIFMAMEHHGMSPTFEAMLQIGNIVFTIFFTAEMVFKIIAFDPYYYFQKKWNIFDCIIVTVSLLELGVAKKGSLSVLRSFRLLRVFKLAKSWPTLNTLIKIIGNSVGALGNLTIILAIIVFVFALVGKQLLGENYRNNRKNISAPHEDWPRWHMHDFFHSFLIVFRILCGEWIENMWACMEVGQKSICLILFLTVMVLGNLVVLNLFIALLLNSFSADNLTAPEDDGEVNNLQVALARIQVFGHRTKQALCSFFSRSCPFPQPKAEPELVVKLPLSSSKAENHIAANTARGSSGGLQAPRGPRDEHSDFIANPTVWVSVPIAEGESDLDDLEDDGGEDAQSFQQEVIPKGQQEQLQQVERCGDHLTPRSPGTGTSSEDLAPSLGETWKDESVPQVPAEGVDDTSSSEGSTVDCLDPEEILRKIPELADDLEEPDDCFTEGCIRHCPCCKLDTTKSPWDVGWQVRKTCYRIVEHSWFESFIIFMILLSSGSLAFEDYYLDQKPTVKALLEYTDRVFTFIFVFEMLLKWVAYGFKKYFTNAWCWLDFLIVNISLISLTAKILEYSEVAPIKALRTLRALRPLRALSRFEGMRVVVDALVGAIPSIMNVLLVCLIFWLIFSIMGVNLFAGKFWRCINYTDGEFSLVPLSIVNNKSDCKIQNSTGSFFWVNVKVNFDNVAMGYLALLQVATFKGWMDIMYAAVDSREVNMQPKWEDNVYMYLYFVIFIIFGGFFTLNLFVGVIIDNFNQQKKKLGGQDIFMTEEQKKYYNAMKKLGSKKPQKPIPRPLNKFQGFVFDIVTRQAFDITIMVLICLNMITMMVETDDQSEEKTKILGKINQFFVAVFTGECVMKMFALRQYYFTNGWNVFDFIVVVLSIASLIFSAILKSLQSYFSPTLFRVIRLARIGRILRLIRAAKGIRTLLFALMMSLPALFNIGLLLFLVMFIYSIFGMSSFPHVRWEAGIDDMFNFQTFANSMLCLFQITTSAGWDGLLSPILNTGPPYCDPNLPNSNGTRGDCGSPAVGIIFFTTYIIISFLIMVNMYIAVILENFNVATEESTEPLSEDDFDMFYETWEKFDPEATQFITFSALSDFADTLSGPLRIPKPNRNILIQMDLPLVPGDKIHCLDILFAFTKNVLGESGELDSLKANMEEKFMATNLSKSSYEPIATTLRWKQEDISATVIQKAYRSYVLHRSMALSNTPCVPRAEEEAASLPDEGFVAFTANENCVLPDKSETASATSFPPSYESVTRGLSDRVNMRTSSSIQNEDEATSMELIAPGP

SMILES	IC50 [1]	further results
COc1c([C@H]2[C@H](C(=O)Nc3cc(C(N)=O)ncn3)O[C@@](C)(C(F)(F)F)[C@H]2C)ccc(F)c1F [Compound 121, 6-[[(2R,3S,4S,5R)-3-(3,4-difluoro-2-methoxy-phenyl)-4,5-dimethyl-5-(trifluoromethyl)tetrahydrofuran-2-carbonyl]amino]pyrimidine-4-carboxamide]	< 10 nM	–
COc1c([C@H]2[C@H](C(=O)Nc3cc(C(N)=O)ncc3F)O[C@@](C)(C(F)(F)F)[C@H]2C)ccc(F)c1F [Compound 122, 4-[[(2R,3S,4S,5R)-3-(3,4-difluoro-2-methoxy-phenyl)-4,5-dimethyl-5-(trifluoromethyl)tetrahydrofuran-2-carbonyl]amino]-5-fluoro-pyridine-2-carboxamide]	< 10 nM	–
COc1c([C@H]2[C@H](C(=O)Nc3ccc(F)c(C(N)=O)c3)O[C@@](C)(C(F)(F)F)[C@H]2C)ccc(F)c1F [Compound 123, (2R,3S,4S,5R)-N-(3-carbamoyl-4-fluoro-phenyl)-3-(3,4-difluoro-2-methoxy-phenyl)-4,5-dimethyl-5-(trifluoromethyl)tetrahydrofuran-2-carboxamide]	< 10 nM	–
[2H]c1cnc(C(N)=O)cc1NC(=O)[C@@H]1O[C@@](C)(C(F)(F)F)[C@@H](C)[C@H]1c1ccc(F)c(F)c1OC [Compound 124, 5-deuterio-4-[[(2R,3S,4S,5R)-3-(3,4-difluoro-2-methoxy-phenyl)-4,5-dimethyl-5-(trifluoromethyl)tetrahydrofuran-2-carbonyl]amino]pyridine-2-carboxamide]	–	IC50 [2]: < 10 nM
COc1c([C@H]2[C@H](C(=O)Nc3ccnc(C(N)=O)c3F)O[C@@](C)(C(F)(F)F)[C@H]2C)ccc(F)c1F [Compound 126, 4-[[(2R,3S,4S,5R)-3-(3,4-difluoro-2-methoxy-phenyl)-4,5-dimethyl-5-(trifluoromethyl)tetrahydrofuran-2-carbonyl]amino]-3-fluoro-pyridine-2-carboxamide]	< 10 nM	–
COc1c([C@H]2[C@H](C(=O)Nc3cc(F)nc(C(N)=O)c3)O[C@@](C)(C(F)(F)F)[C@H]2C)ccc(F)c1F [Compound 127, 4-[[(2R,3S,4S,5R)-3-(3,4-difluoro-2-methoxy-phenyl)-4,5-dimcthyl-5-(trifluoromethyl)tetrahydrofuran-2-carbonyl]amino]-6-fluoro-pyridine-2-carboxamide]	< 10 nM	–
[2H]c1c(NC(=O)[C@@H]2O[C@@](C)(C(F)(F)F)[C@@H](C)[C@H]2c2ccc(F)c(F)c2OC)ccnc1C(N)=O [Compound 129, 3-deuterio-4-[[(2R,3S,4S,5R)-3-(3,4-difluoro-2-methoxy-phenyl)-4,5-dimethyl-5-(trifluoromethyl)tetrahydrofuran-2-carbonyl]amino]pyridine-2-carboxamide]	–	IC50 [2]: < 10 nM
C[C@H]1[C@@H](c2ccc(F)c(F)c2OCC2CC(F)(F)C2)[C@H](C(=O)Nc2ccnc(C(N)=O)c2)O[C@@]1(C)C(F)(F)F [Compound 146, 4-[[(2R,3S,4S,5R)-3-[2-[(3,3-difluorocyclobutyl)methoxy]-3,4-difluoro-phenyl]-4,5-dimethyl-5-(trifluoromethyl)tetrahydrofuran-2-carbonyl]amino]pyridine-2-carboxamide]	–	IC50 [3]: 10 to 100 nM
C[C@H]1[C@@H](c2ccc(F)c(F)c2OC2CCC2)[C@H](C(=O)Nc2ccnc(C(N)=O)c2)O[C@@]1(C)C(F)(F)F [Compound 147, 4-[[(2R,3S,4S,5R)-3-[2-(cyclobutoxy)-3,4-difluoro-phenyl]-4,5-dimethyl-5-(trifluoromethyl)tetrahydrofuran-2-carbonyl]amino]pyridine-2-carboxamide]	< 10 nM	–
[2H]c1cc([C@H]2[C@H](C(=O)Nc3ccnc(C(N)=O)c3)O[C@@](C)(C(F)(F)F)[C@H]2C)c(OC)c(F)c1F [Compound 148, 4-[[(2R,3S,4S,5R)-3-(5-deuterio-3,4-difluoro-2-methoxy-phenyl)-4,5-dimethyl-5-(trifluoromethyl)tetrahydrofuran-2-carbonyl]amino]pyridine-2-carboxamide]	–	IC50 [2]: < 10 nM
C=Cc1c([C@H]2[C@H](C(=O)Nc3ccnc(C(N)=O)c3)O[C@@](C)(C(F)(F)F)[C@H]2C)ccc(F)c1F [Compound 149, 4-[[(2R,3S,4S,5R)-3-(3,4-difluoro-2-vinyl-phenyl)-4,5-dimethyl-5-(trifluoromethyl)tetrahydrofuran-2-carbonyl]amino]pyridine-2-carboxamide]	< 10 nM	–
COc1c([C@H]2[C@H](C(=O)Nc3ccnc(C(N)=O)c3)O[C@@](C)(C(F)(F)F)[C@H]2C)cc(Cl)c(F)c1F [Compound 152, 4-[[(2R,3S,4S,5R)-3-(5-chloro-3,4-difluoro-2-methoxy-phenyl)-4,5-dimethyl-5-(trifluoromethyl)tetrahydrofuran-2-carbonyl]amino]pyridine-2-carboxamide]	< 10 nM	–
[2H]C([2H])([2H])Oc1c([C@H]2[C@H](C(=O)Nc3ccnc(C(N)=O)c3)O[C@@](C)(C(F)(F)F)[C@H]2C)ccc(F)c1F [compound 26]	–	IC50 (in the Presence of Human Serum in the E-VIPR Assay): < 10 nM
C[C@@]1(C(F)(F)F)C[C@H](c2ccc(F)cc2OC(F)F)[C@@H](C(=O)Nc2ccnc(C(N)=O)c2)O1 [compound 73]	–	IC50 [3]: > 1000 nM
C[C@]1(C(F)(F)F)C[C@@H](c2ccc(F)cc2OC(F)F)[C@H](C(=O)Nc2ccnc(C(N)=O)c2)O1 [compound 74]	–	IC50 [3]: 10 to 100 nM
